PubChem BioAssay (NCI)
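Each compound was tested at five concentrations against cells in 96-well plates for 48 hours. TGI: total growth inhibition.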 Where a SMILES comes first, the peptide text is derived from it. [ ]: non-standard residue; d: D form. The star is where a group is joined. ξ: configuration not given here. ξD = NC(CC(=O)O)C(=O)O; Boc = CC(C)(C)OC(=O)*; Aib = CC(C)(N)C(=O)O; OBn = c1ccc(CO*)cc1

Assays:
Assay in all cases: growth of human tumour cells (NCI), 48 h
786-0 renal = system: 786-0 renal
A498 renal = system: A498 renal
CCRF-CEM leukemia = system: CCRF-CEM leukemia
DU-145 prostate = system: DU-145 prostate
HOP-92 NSCLC = system: HOP-92 NSCLC
IGROV1 ovarian = system: IGROV1 ovarian
KM12 colon = system: KM12 colon
M14 melanoma = system: M14 melanoma
MCF7 breast = system: MCF7 breast
MDA-MB-435 = system: MDA-MB-435
NCI-H522 lung = system: NCI-H522 lung
PC-3 prostate = system: PC-3 prostate
RPMI-8226 leukemia = system: RPMI-8226 leukemia
SK-MEL-28 melanoma = system: SK-MEL-28 melanoma
T-47D breast = system: T-47D breast
HCC-2998 colon = system: HCC-2998 colon
SR leukemia = system: SR leukemia

| Structure (SMILES) | TGI (786-0 renal) [µM] | TGI (A498 renal) [µM] | TGI (CCRF-CEM leukemia) [µM] | TGI (DU-145 prostate) [µM] | TGI (HOP-92 NSCLC) [µM] | TGI (IGROV1 ovarian) [µM] | TGI (KM12 colon) [µM] | TGI (M14 melanoma) [µM] | TGI (MCF7 breast) [µM] | TGI (MDA-MB-435) [µM] | TGI (NCI-H522 lung) [µM] | TGI (PC-3 prostate) [µM] | TGI (RPMI-8226 leukemia) [µM] | TGI (SK-MEL-28 melanoma) [µM] | TGI (T-47D breast) [µM] | TGI (HCC-2998 colon) [µM] | TGI (SR leukemia) [µM] |
| --- | --- | --- | --- | --- | --- | --- | --- | --- | --- | --- | --- | --- | --- | --- | --- | --- | --- |
| CC(C)(C)OC(=O)NC(CC(=O)OCc1ccccc1)C(=O)NC(C)(C)C(N)=O (stereo not drawn) (Boc-[ξD](OBn)-[Aib]-NH2) | > 100 | > 100 | > 100 | > 100 | > 100 | > 100 | > 100 | > 100 | > 100 | > 100 | > 100 | > 100 | > 100 | > 100 | > 100 | – | – |
| O=C(NCCCCCCCCNC(=O)Nc1cccc2ccccc12)Nc1cccc2ccccc12 | 24.9 | 34.7 | 48.7 | > 100 | 36 | > 100 | > 100 | > 100 | > 100 | 81.3 | 87 | > 100 | > 100 | > 100 | > 100 | > 100 | – |
| CC(NNC(=O)c1ccncc1)c1ccccc1 (stereo not drawn) | > 100 | > 100 | > 100 | > 100 | > 100 | > 100 | > 100 | > 100 | > 100 | > 100 | – | > 100 | > 100 | > 100 | > 100 | > 100 | > 100 |
| C/C(=C/CC[C@](C)(OC1OC(CO)C(O)C(O)C1O)[C@H]1CC[C@]2(C)[C@@H]1CC[C@@H]1[C@@]3(C)CC[C@H](O)C(C)(C)[C@@H]3C[C@H](O)[C@]12CO)CO (stereo partly drawn) | > 100 | > 100 | > 100 | > 100 | > 100 | > 100 | > 100 | > 100 | > 100 | > 100 | > 100 | > 100 | > 100 | > 100 | > 100 | – | > 100 |
| CCOC(=O)C(=[N+]=[N-])C(=O)CSC#N | > 100 | > 100 | > 100 | > 100 | – | > 100 | > 100 | > 100 | > 100 | > 100 | 79.4 | > 100 | – | > 100 | > 100 | – | – |
| O=C(C[C@@H]1CCCN2CCCC[C@H]12)N1c2ccccc2Sc2ccc(Cl)cc21 | 23.1 | – | 35.1 | 28.2 | – | 25.6 | 27.6 | 17.9 | 35.5 | 29.3 | 26.9 | 27.2 | 54.8 | 26.3 | 39.5 | – | 53 |
| Nc1ccc(Oc2ccc(C34CC5CC(C3)CC(c3ccc(Oc6ccc(N)cc6C(F)(F)F)cc3)(C5)C4)cc2)c(C(F)(F)F)c1 | > 100 | 35.2 | > 100 | > 100 | – | 37.9 | 67.6 | 33.4 | 33.8 | 84.2 | 30.3 | 29.2 | – | > 100 | 64.5 | – | – |
| CN(C)c1ccc(N=C2N=C(Nc3ccccc3)C(=Nc3ccccc3)S2)cc1 | > 100 | > 100 | > 100 | > 100 | > 100 | > 100 | > 100 | > 100 | > 100 | > 100 | > 100 | > 100 | – | > 100 | > 100 | > 100 | > 100 |
| O=S(Cc1ccccc1)c1ccccc1Cn1cccc1 (stereo not drawn) | > 100 | – | > 100 | > 100 | > 100 | > 100 | > 100 | > 100 | > 100 | > 100 | – | > 100 | > 100 | > 100 | > 100 | > 100 | 83.4 |
| NC(=O)c1ncn(C2C=CC(CP(=O)(O)O)C2)c1N (stereo not drawn) | > 100 | – | > 100 | > 100 | > 100 | > 100 | > 100 | > 100 | > 100 | > 100 | – | > 100 | > 100 | > 100 | > 100 | > 100 | > 100 |
| Cn1c(-c2ccccc2)cc(-c2ccc3c(c2)OCO3)c1-c1ccsc1 | > 100 | > 100 | > 100 | > 100 | > 100 | – | > 100 | > 100 | > 100 | > 100 | – | > 100 | > 100 | > 100 | > 100 | > 100 | > 100 |
| O=c1c2ccccc2n2c(-c3ccccc3O)nnc2n1-c1ccccc1 | > 100 | > 100 | > 100 | > 100 | > 100 | > 100 | > 100 | > 100 | > 100 | > 100 | > 100 | > 100 | – | > 100 | > 100 | > 100 | > 100 |
| Cc1cccc2c(N)c3cccc(C(=O)NCC[N+](C)(C)Cc4ccccc4[N+](=O)[O-])c3nc12 | 12.7 | > 29.3 | – | > 100 | 49.5 | > 100 | > 100 | > 40.3 | > 100 | > 46.9 | 18.5 | 45.2 | > 58.3 | > 71.1 | > 100 | > 25.9 | 2.09 |
| Cc1[nH]c2ncn3[nH]c(=S)nc3c2c1Cc1ccccc1 | > 100 | > 100 | > 100 | > 100 | > 100 | > 100 | > 100 | > 100 | > 100 | > 100 | > 100 | > 100 | – | > 100 | > 100 | > 100 | – |
| CSc1nc(-c2ccccc2)[nH]c(=O)n1 | > 100 | > 100 | > 100 | > 100 | > 100 | > 100 | > 100 | > 100 | > 100 | > 100 | > 100 | > 100 | > 100 | > 100 | > 100 | > 100 | – |
| O=C1NC(=O)C(CCC(=O)c2cccc3ccccc23)C(=O)N1 | > 100 | > 100 | – | > 100 | > 100 | – | > 100 | > 100 | > 100 | > 100 | – | > 100 | > 100 | > 100 | > 100 | > 100 | > 100 |
| NC1CCN(c2nc3ccccc3c3c2CCCC3)CC1 | 13.3 | 22.7 | 15.2 | 24.3 | 17.2 | 19.5 | 15.2 | 3.84 | 8.6 | 7.61 | 19.3 | 20.4 | 11.1 | 10.6 | 7.29 | 3.2 | – |
| Nc1nc(Cl)c(N)c(NCC2(CO)CCC(OCc3ccccc3)C2)n1 (stereo not drawn) | > 100 | 81.5 | > 100 | > 100 | > 100 | > 100 | > 100 | – | > 100 | > 100 | > 100 | > 100 | – | > 100 | > 100 | > 100 | – |
| COc1cc(/C=N/NC(=O)c2c(Cl)c(Cl)c(Cl)c(Cl)c2-c2nc3ccc(C(=O)c4ccccc4)cc3[nH]2)ccc1O | > 100 | – | 81.6 | > 100 | > 100 | > 100 | > 100 | > 100 | > 100 | > 100 | > 100 | > 100 | 89.5 | > 100 | > 100 | – | 54.4 |
| Oc1ccc(Br)cc1C=Nc1c(NC2CCCCC2)oc2ccc(Br)cc12 | > 100 | > 100 | 20.2 | > 100 | – | > 100 | > 100 | – | 83.2 | > 100 | – | – | > 100 | > 100 | > 100 | > 100 | > 100 |
| CCOC(=O)c1cc(=O)c2cccc3c2n1CCS3 | > 100 | > 100 | > 100 | > 100 | > 100 | > 100 | > 100 | > 100 | > 100 | > 100 | > 100 | > 100 | – | > 100 | > 100 | – | – |
| CCC1C(NC(=O)OC)C(=O)N1[C@@H](C)c1ccccc1 (stereo partly drawn) | > 100 | > 100 | – | > 100 | > 100 | > 100 | > 100 | > 100 | > 100 | > 100 | > 100 | > 100 | > 100 | > 100 | > 100 | > 100 | > 100 |
| COc1cccc([C@@H]2C/C(=N\NC(=O)C(=O)N[C@@H](C)c3ccccc3)c3ccccc3N2)c1 | > 100 | > 100 | > 100 | > 100 | > 100 | – | > 100 | > 100 | > 100 | 48.8 | – | > 100 | > 100 | > 100 | > 100 | > 100 | – |
